# US6921530B1, “Low dose IL-2 for potentiation of immunity” (Cornell Research Foundation, Inc., priority 1999, dated 2005)
# “And” between values parts separate entries of the source, which are not always exact repeats. Equal entries are not always repeated.
# Experiments:
# HCV = settings: 1-2 MIU s.c. daily; cited from earlier work
# [1] = tested on: HIV p24-reactive T cells and NK cells; experiment: Activation markers after 18 h whole blood activation with HIV p24 (flow cytometry); format: cell-based, human
# Source text: FIG. 4 Expression of activation markers of CD4+ T cells and CD4− T cells after stimulation with HIV p24. Vertical axis=CD4, upper row horizontal axis=CD69, middle row=CD25, lower row=IFN-γ. A=subject #1, B=subject #2, C=subject #3, and D=subject #8. Numbers in right quadrants represent the % of CD4+ (upper) and CD4− (lower) T cells that reacted with the monoclonal antibody directed against the respective activation marker. The numbers in the column on the right represent the mean±SEM of the percentage positive cells from all 4 subjects. The values for control cultures, which received monoclonal antibodies reactive with accessory molecules alone (CD28 & CD49d) without HIV p24, were subtracted from the plots and percentages shown.
# To identify activated cells, whole blood (1 ml) was cultured for 18 hours with the co-stimulatory antibodies anti-CD28 and anti-CD49d, and HIV p24 antigen (1 μg/ml, Research Diagnostics, Inc., Flanders N.J.) and cytomegalovirus antigen (1 μg/ml, Advanced Biotechnologies, Columbia, Md.). At the end of the incubaton the erythrocytes were lysed using FACSLysing Solution™ (9 ml). The cells were then either frozen at −70° C. in 2 ml RPMI 1640 medum with 10% Dimethyl Sulfoxide (Sigma, St. Louis, Mo.) or permeabilized with FACSPerm Solution™ (2 ml). Thereafter the cells were reacted with anti-CD3-PerCP, anti-CD4-PE, anti-CD8-PE, anti-CD56-PE, anti-CD69-FITC, anti-CD25-FITC, and anti-IFN-γ-FITC. All antibodies were from Becton Dickinson.
# FIG. 5 Expression of interferon γ (IFN-γ) by CD-3+ and CD3− lymphocytes. A. Cells examined for size and granularity (left panel), CD3 expression (middle panel), and CD8 expression (right panel). B. Expression of IFN-γ and CD56 by CD3+ cells (gate R2), according to CD8− cells (gate R4, left panels), CD8 dim (gate R5, middle panels), and CD8+ (gate R6, right panels). Control cultures stimulated only with accessory antibodies (upper panels, HIV p24-stimulated cultures (lower panels). C. Expression of IFN-γ and CD56 by CD3− cells (gate R3), according to CD8− cells (gate R4, left panels), CD8dim (gate 5, middle panels) and CD8+ (gate R6, right panels). Control cultures stimulated only with accessory antibodies (upper panes, antiCD28, CD49d), HIV p-24-stimulated cultures (lower panels). Numbers in upper quadrants represent the percentages of CD56− and CD56+ cells that also reacted with anti-IFN-γ. To examine the activation of T cells and NK cells together, the cells were reacted with anti-CD3-PerCP, anti-CD8-PE, and anti-CD56-FITC, together with anti-IFN-γ-APC, all from Becton Dickinson.
# To examine the HIV specific reactivity of CD4+ T cells, we performed an 18-hour activation of whole blood with HIV p24 followed by a 4-hour incubation with Brefeldin A to inhibit secretion. Subsequently, the cells were examined by flow cytometry after reaction with fluorochrome-conjugated monoclonal antibodies. Shown in FIG. 4 are the results from experiments performed with blood from the subjects who underwent a second treatment interruption when they had experienced the second CD8+ T lymphocytosis and had reached a stable concentration of plasma virus. Only CD3+ T cells were examined. […] In addition, subjects #1, 2 and 8 also expressed IFN-γ (mean 2.0%±1.2% SEM), while subject #3 had reactivity just above the limits of detection (0.2%). Also depicted in FIG. 4 are the results of the activation markers expressed by CD4− T cells, which are all CD8+, as determined by direct analysis for CD8 expression. There were also CD4− T cells stimulated to express CD69 (mean 3.2%±2.1% SEM) and CD25 (mean 1.9%±0.9% SEM). Moreover, CD4− T cells from subjects #1 and 2 also expressed IFN-γ, whereas the cells from subject 3 and 8 were at the level of detection (0.1%).
# It was unexpected to find CD3+, CD4− cells capable of expressing surface markers of activation, and as well, producing detectable intracellular IFN-γ after HIV p24 stimulation. […]
# [2] = 4 subjects after second treatment interruption, mean ± SEM
# [3] = subject #1, HIV antigen activated
substance,measurement,setting,value
Interleukin-2 [IL-2],subjects showing a decrease in ALT,HCV,70%
same,CD4+ T cells stimulated by HIV p24 to express CD25,[1]; [2],15.5%±2.1% and 15.5%
same,CD4+ T cells stimulated by HIV p24 to express CD69,[1]; [2],4.3%±0.45
same,CD4− T cells stimulated by HIV p24 to express CD25,[1]; [2],1.9%±0.9%
same,CD4− T cells stimulated by HIV p24 to express CD69,[1]; [2],3.2%±2.1%
same,CD4− T cells expressing IFN-γ,"[1]; subject 3 and 8, at the level of detection",0.1%
same,"CD3-, CD8-dim cells that are CD56+ producing IFN-γ",[1]; [3],28%
same,"CD3−, CD8− cells that express CD56 producing IFN-γ",[1]; [3],33%
same,CD4+ T cells stimulated by HIV p24 to express IFN-γ,"[1]; subject #3, just above the limits of detection",0.2%
same,CD4+ T cells stimulated by HIV p24 to express IFN-γ,"[1]; subjects #1, 2 and 8, mean ± SEM",2.0%±1.2%
